In article PMC9090415, “Discovery of small molecule inhibitors of Plasmodium falciparum apicoplast DNA polymerase” (Journal of Enzyme Inhibition and Medicinal Chemistry, 2022):

Target: P. falciparum apicoplast DNA polymerase (Pf-apPOL) (Plasmodium falciparum, UniProt Q8ILY1)
Assay: Fluorescence-based high-throughput DNA polymerase assay (molecular beacon), primary screen and dose-response
Assay type: biochemical
Conditions: for DNA Pol: 90 min, 10 µM; for % inhibition Apo pol 10' 2.5 / % inhibition Apo pol 10' 5 / % inhibition Apo pol 10' 10 / % inhibition Apo pol 10' 20 / % inhibition Apo pol 10' 40 / % inhibition Apo pol 10' 80: read at 10'; for % inhibition Apol 90' 2.5 / % inhibition Apol 90' 5 / % inhibition Apol 90' 10 / % inhibition Apol 90' 20 / % inhibition Apol 90' 40 / % inhibition Apol 90' 80 / % inhibition ApPOL 90' 2.5 / % inhibition ApPOL 90' 5 / % inhibition ApPOL 90' 10 / % inhibition ApPOL 90' 20 / % inhibition ApPOL 90' 40 / % inhibition ApPOL 90' 80: read at 90'; for % inhibition apPOL 180' 2.5 / % inhibition apPOL 180' 5 / % inhibition apPOL 180' 10 / % inhibition apPOL 180' 20 / % inhibition apPOL 180' 40 / % inhibition apPOL 180' 80: read at 180'; for % inhibition Apo pol 5' 2.5 / % inhibition Apo pol 5' 5 / % inhibition Apo pol 5' 10 / % inhibition Apo pol 5' 20 / % inhibition Apo pol 5' 40 / % inhibition Apo pol 5' 80: read at 5'; for % inhibition Apol 40' 2.5 / % inhibition Apol 40' 5 / % inhibition Apol 40' 10 / % inhibition Apol 40' 20 / % inhibition Apol 40' 40 / % inhibition Apol 40' 80: read at 40'
In short: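 Single-point screening used 10 µM compound with 20 nM polymerase, 20 nM hairpin substrate and 6 µM dNTPs for 90 min at 25 °C. Confirmatory titrations (2.5–80 µM) followed fluorescence at three times, and IC50 was derived from a fit including a cooperativity term n.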

[1] = 186 hits, DNA Pol (screen value), unit not given
[2] = 'DNA Pol' (screen value), unit not given
[3] = first dose-response, concentration 10

P. falciparum apicoplast DNA polymerase (Pf-apPOL), sequence (Q8ILY1 entry or part of it): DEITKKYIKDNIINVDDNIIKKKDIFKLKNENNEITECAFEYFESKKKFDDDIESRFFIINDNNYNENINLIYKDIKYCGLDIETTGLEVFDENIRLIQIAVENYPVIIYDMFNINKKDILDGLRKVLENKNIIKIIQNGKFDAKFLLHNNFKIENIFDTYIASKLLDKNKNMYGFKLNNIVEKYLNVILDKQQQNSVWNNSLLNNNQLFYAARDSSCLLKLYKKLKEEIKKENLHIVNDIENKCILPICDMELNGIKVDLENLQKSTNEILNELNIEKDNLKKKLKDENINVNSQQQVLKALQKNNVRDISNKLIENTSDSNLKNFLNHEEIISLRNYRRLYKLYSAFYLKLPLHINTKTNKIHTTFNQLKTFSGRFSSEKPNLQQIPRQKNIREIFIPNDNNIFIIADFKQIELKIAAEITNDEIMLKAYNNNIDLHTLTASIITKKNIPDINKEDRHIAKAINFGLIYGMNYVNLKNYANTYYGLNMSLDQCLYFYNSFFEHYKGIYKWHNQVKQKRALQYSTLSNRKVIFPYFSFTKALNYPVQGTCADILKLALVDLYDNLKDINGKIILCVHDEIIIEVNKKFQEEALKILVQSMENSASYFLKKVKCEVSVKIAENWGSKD

Cn1nc(-c2nc(-c3ccccc3)no2)c2c1CCN(C(=O)Cc1cccs1)C2 [Molecule 58, O=C(N1CCc2c(C1)c(nn2C)c1onc(n1)c1ccccc1)Cc1cccs1]
DNA Pol [1]: 38
DNA Pol [2]: 38
% inhibition Apo pol 10' 2.5 (DRC-1, concentration 2.5): 10%
% inhibition Apo pol 10' 5 (DRC-1, concentration 5): 10%
% inhibition Apo pol 10' 10 (DRC-1, concentration 10): 35%
% inhibition Apo pol 10' 20 (DRC-1, concentration 20): 48%
% inhibition Apo pol 10' 40 (DRC-1, concentration 40): 65%
% inhibition Apo pol 10' 80 (DRC-1, concentration 80): 65%
% inhibition Apol 90' 2.5 (DRC-1, concentration 2.5): -0.451%
% inhibition Apol 90' 5 (DRC-1, concentration 5): 2.41%
% inhibition Apol 90' 10 (DRC-1, concentration 10): 21%
% inhibition Apol 90' 20 (DRC-1, concentration 20): 37%
% inhibition Apol 90' 40 (DRC-1, concentration 40): 58%
% inhibition Apol 90' 80 (DRC-1, concentration 80): 67%
% inhibition apPOL 180' 2.5 (DRC-1, concentration 2.5): -6%
% inhibition apPOL 180' 5 (DRC-1, concentration 5): -3.68%
% inhibition apPOL 180' 10 (DRC-1, concentration 10): 9%
% inhibition apPOL 180' 20 (DRC-1, concentration 20): 21%
% inhibition apPOL 180' 40 (DRC-1, concentration 40): 45%
% inhibition apPOL 180' 80 (DRC-1, concentration 80): 62%
% inhibition Apo pol 5' (DRC-2, concentration 5): 10%
% inhibition Apol 40' (DRC-2, concentration 2.5): 9%
% inhibition ApPOL 90' (DRC-2, concentration 40): 54%
% inhibition ApPOL 90' (DRC-2, concentration 80): 54%
% inhibition Apo pol 5' 2.5 (DRC-2, concentration 2.5): 7.55%
% inhibition Apo pol 5' 5 (DRC-2, concentration 5): 10%
% inhibition Apo pol 5' 10 (DRC-2, concentration 10): 18%
% inhibition Apo pol 5' 20 (DRC-2, concentration 20): 27%
% inhibition Apo pol 5' 40 (DRC-2, concentration 40): 28%
% inhibition Apo pol 5' 80 (DRC-2, concentration 80): 16%
% inhibition Apol 40' 2.5 (DRC-2, concentration 2.5): 9%
% inhibition Apol 40' 5 (DRC-2, concentration 5): 13%
% inhibition Apol 40' 10 (DRC-2, concentration 10): 24%
% inhibition Apol 40' 20 (DRC-2, concentration 20): 39%
% inhibition Apol 40' 40 (DRC-2, concentration 40): 51%
% inhibition Apol 40' 80 (DRC-2, concentration 80): 47%
% inhibition ApPOL 90' 2.5 (DRC-2, concentration 2.5): 7.37%
% inhibition ApPOL 90' 5 (DRC-2, concentration 5): 11%
% inhibition ApPOL 90' 10 (DRC-2, concentration 10): 23%
% inhibition ApPOL 90' 20 (DRC-2, concentration 20): 40%
% inhibition ApPOL 90' 40 (DRC-2, concentration 40): 54%
% inhibition ApPOL 90' 80 (DRC-2, concentration 80): 54%
% inhibition apPOL 180' 2.5 (DRC-2, concentration 2.5): 3.22%
% inhibition apPOL 180' 5 (DRC-2, concentration 5): 6%
% inhibition apPOL 180' 10 (DRC-2, concentration 10): 15%
% inhibition apPOL 180' 20 (DRC-2, concentration 20): 31%
% inhibition apPOL 180' 40 (DRC-2, concentration 40): 52%
% inhibition apPOL 180' 80 (DRC-2, concentration 80): 56%
% inhibition Apo pol 10' (first dose-response, concentration 2.5): 10%
% inhibition Apo pol 10' (first dose-response, concentration 5): 10%
% inhibition Apo pol 10' (first dose-response, concentration 40): 65%
% inhibition Apo pol 10' (first dose-response, concentration 80): 65%
% inhibition Apol 90' [3]: 21%
% inhibition apPOL 180' [3]: 9%
% inhibition apPOL 180' (first dose-response, concentration 20): 21%

Cc1cc2[nH]c(C(=O)Nc3ccc(F)cc3)c(CN3CCOCC3)c2s1 [Molecule 60, Fc1ccc(cc1)NC(=O)c1[nH]c2c(c1CN1CCOCC1)sc(c2)C]
DNA Pol [1]: 24
DNA Pol [2]: 24
% inhibition Apo pol 10' 2.5 (DRC-1, concentration 2.5): -2.4883%
% inhibition Apo pol 10' 5 (DRC-1, concentration 5): 6.203%
% inhibition Apo pol 10' 10 (DRC-1, concentration 10): 25.0572%
% inhibition Apo pol 10' 20 (DRC-1, concentration 20): 44.6815%
% inhibition Apo pol 10' 40 (DRC-1, concentration 40): 69.9494%
% inhibition Apo pol 10' 80 (DRC-1, concentration 80): 76.8011%
% inhibition Apol 90' 2.5 (DRC-1, concentration 2.5): -5.041%
% inhibition Apol 90' 5 (DRC-1, concentration 5): 0.952%
% inhibition Apol 90' 10 (DRC-1, concentration 10): 13.5518%
% inhibition Apol 90' 20 (DRC-1, concentration 20): 29.567%
% inhibition Apol 90' 40 (DRC-1, concentration 40): 56.5635%
% inhibition Apol 90' 80 (DRC-1, concentration 80): 73.0205%
% inhibition apPOL 180' 2.5 (DRC-1, concentration 2.5): -7.929%
% inhibition apPOL 180' 5 (DRC-1, concentration 5): -4.0377%
% inhibition apPOL 180' 10 (DRC-1, concentration 10): 4.226%
% inhibition apPOL 180' 20 (DRC-1, concentration 20): 14.1958%
% inhibition apPOL 180' 40 (DRC-1, concentration 40): 39.4222%
% inhibition apPOL 180' 80 (DRC-1, concentration 80): 63.0707%
% inhibition Apo pol 5' (DRC-2, concentration 40): 38%
% inhibition ApPOL 90' (DRC-2, concentration 20): 38%
% inhibition Apo pol 5' 2.5 (DRC-2, concentration 2.5): -2.34%
% inhibition Apo pol 5' 5 (DRC-2, concentration 5): 3.5%
% inhibition Apo pol 5' 10 (DRC-2, concentration 10): 20%
% inhibition Apo pol 5' 20 (DRC-2, concentration 20): 33%
% inhibition Apo pol 5' 40 (DRC-2, concentration 40): 38%
% inhibition Apo pol 5' 80 (DRC-2, concentration 80): 36%
% inhibition Apol 40' 2.5 (DRC-2, concentration 2.5): 0.384%
% inhibition Apol 40' 5 (DRC-2, concentration 5): 3.72%
% inhibition Apol 40' 10 (DRC-2, concentration 10): 21%
% inhibition Apol 40' 20 (DRC-2, concentration 20): 40%
% inhibition Apol 40' 40 (DRC-2, concentration 40): 57%
% inhibition Apol 40' 80 (DRC-2, concentration 80): 60%
% inhibition ApPOL 90' 2.5 (DRC-2, concentration 2.5): 0.312%
% inhibition ApPOL 90' 5 (DRC-2, concentration 5): 2.6%
% inhibition ApPOL 90' 10 (DRC-2, concentration 10): 18%
% inhibition ApPOL 90' 20 (DRC-2, concentration 20): 38%
% inhibition ApPOL 90' 40 (DRC-2, concentration 40): 59%
% inhibition ApPOL 90' 80 (DRC-2, concentration 80): 65%
% inhibition apPOL 180' 2.5 (DRC-2, concentration 2.5): -2.7%
% inhibition apPOL 180' 5 (DRC-2, concentration 5): -0.247%
% inhibition apPOL 180' 10 (DRC-2, concentration 10): 11%
% inhibition apPOL 180' 20 (DRC-2, concentration 20): 28%
% inhibition apPOL 180' 40 (DRC-2, concentration 40): 53%
% inhibition apPOL 180' 80 (DRC-2, concentration 80): 66%

O=C1C(=Cc2ccccc2O)Oc2ccc(O)cc21 [KU0196475]
DNA Pol ("DNA Pol" of the 186 hits list (screen value)): 17
% inhibition Apo pol 10' (DRC-1, concentration 2.5): -5.1779%
% inhibition Apo pol 10' (DRC-1, concentration 5): -7.445%
% inhibition Apo pol 10' (DRC-1, concentration 10): 3.3875%
% inhibition Apo pol 10' (DRC-1, concentration 20): 10.6699%
% inhibition Apo pol 10' (DRC-1, concentration 40): 41.0111%
% inhibition Apo pol 10' (DRC-1, concentration 80): 68.8562%
% inhibition Apol 90' (DRC-1, concentration 2.5): -1.782%
% inhibition Apol 90' (DRC-1, concentration 5): -1.611%
% inhibition Apol 90' (DRC-1, concentration 10): 10.1306%
% inhibition Apol 90' (DRC-1, concentration 20): 24.1034%
% inhibition Apol 90' (DRC-1, concentration 40): 57.9717%
% inhibition Apol 90' (DRC-1, concentration 80): 77.3146%
% inhibition apPOL 180' (DRC-1, concentration 2.5): 3.033%
% inhibition apPOL 180' (DRC-1, concentration 5): 3.658%
% inhibition apPOL 180' (DRC-1, concentration 10): 21.7009%
% inhibition apPOL 180' (DRC-1, concentration 20): 41.2058%
% inhibition apPOL 180' (DRC-1, concentration 40): 72.3539%
% inhibition apPOL 180' (DRC-1, concentration 80): 79.2388%
% inhibition Apo pol 5' (DRC-2, concentration 2.5): -0.68%
% inhibition Apo pol 5' (DRC-2, concentration 5): 0.901%
% inhibition Apo pol 5' (DRC-2, concentration 10): 18%
% inhibition Apo pol 5' (DRC-2, concentration 20): 28%
% inhibition Apo pol 5' (DRC-2, concentration 40): 40%
% inhibition Apo pol 5' (DRC-2, concentration 80): 45%
% inhibition Apol 40' (DRC-2, concentration 2.5): 0.208%
% inhibition Apol 40' (DRC-2, concentration 5): -7.41%
% inhibition Apol 40' (DRC-2, concentration 10): 18%
% inhibition Apol 40' (DRC-2, concentration 20): 33%
% inhibition Apol 40' (DRC-2, concentration 40): 54%
% inhibition Apol 40' (DRC-2, concentration 80): 65%
% inhibition ApPOL 90' (DRC-2, concentration 2.5): 0%
% inhibition ApPOL 90' (DRC-2, concentration 5): -14%
% inhibition ApPOL 90' (DRC-2, concentration 10): 15%
% inhibition ApPOL 90' (DRC-2, concentration 20): 29%
% inhibition ApPOL 90' (DRC-2, concentration 40): 53%
% inhibition ApPOL 90' (DRC-2, concentration 80): 66%
% inhibition apPOL 180' (DRC-2, concentration 2.5): -3.48%
% inhibition apPOL 180' (DRC-2, concentration 5): -88%
% inhibition apPOL 180' (DRC-2, concentration 10): 8%
% inhibition apPOL 180' (DRC-2, concentration 20): 17%
% inhibition apPOL 180' (DRC-2, concentration 40): 45%
% inhibition apPOL 180' (DRC-2, concentration 80): 63%
DNA Pol (primary screen value, DNA Pol): 17
